Measurements from US8546440B2, “Substituted bicyclic imidazole derivatives as gamma secretase modulators” (Janssen Pharmaceuticals, Inc., priority 2008, dated 2013).

What was measured:
Aβ42 = assay: Screening for γ-secretase-modulating activity, Method 2: Aβ42 Alphalisa in supernatant of SKNBE2 cells carrying APP 695 wild type (Table 12c); type: cell-based; conditions: Method 2, Table 12c, incubated overnight
Summary of the method: (§1)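 SKNBE2 cells expressing wild-type APP695, 10^4 cells/well, exposed to compound overnight at 37 °C; secreted Aβ42 and Aβtotal in supernatant measured by AlphaLISA sandwich immunoassays (Aβ42: C-terminal/N-terminal antibodies; Aβtotal: N-terminal/4G8). IC50 from 4-parameter fit of % untreated control.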

Aβtotal [1] = assay: Screening for γ-secretase-modulating activity, Method 2: Aβtotal Alphalisa in supernatant of SKNBE2 cells carrying APP 695 wild type (Table 12c); type: cell-based; conditions: Method 2, Table 12c, incubated overnight
Summary of the method: as §1

Aβtotal [2] = assay: Demonstration of in vivo efficacy: Aβtotal lowering in brain after single oral dose (Table 13); conditions: mouse brain soluble fraction, mean, compared to untreated animals
Text: To determine whether acute administration of an Aβ42 lowering agent would reduce Aβ42 levels in vivo, non-transgenic rodents, e.g. mice or rats were used. Alternatively, two to three month old Tg2576 mice expressing APP695 containing the “Swedish” variant can be used or a transgenic mouse model developed by Dr. Fred Van Leuven (K. U. Leuven, Belgium) and co-workers, with neuron-specific expression of a clinical mutant of the human amyloid precursor protein [V717I] (Moechars et al., 1999 J. Biol. Chem. 274, 6483). Young transgenic mice have high levels of Aβ in the brain but no detectable Aβ deposition. At approximately 6-8 months of age, the transgenic mice start to display spontaneous, progressive accumulation of β-amyloid (Aβ) in the brain, eventually resulting in amyloid plaques within the subiculum, hippocampus and cortex. Animals treated with the Aβ42 lowering agent were examined and compared to those untreated or treated with vehicle and brain levels of soluble Aβ42 and total Aβ would be quantitated by standard techniques, for example, using ELISA. Treatment periods varied from hours to days and were adjusted based on the results of the Aβ42 lowering once a time course of onset of effect could be established.
A typical protocol for measuring Aβ42 lowering in vivo is shown but it is only one of many variations that could be used to optimize the levels of detectable Aβ. For example, Aβ42 lowering compounds were formulated in 20% of Captisol® (a sulfobutyl ether of β-cyclodextrin) in water or 20% hydroxypropyl β cyclodextrin. The Aβ42 lowering agents were administered as a single oral dose or by any acceptable route of administration to overnight fasted animals. After four hours, the animals were sacrificed and Aβ42 levels were analysed.
Blood was collected by decapitation and exsanguinations in EDTA-treated collection tubes. Blood was centrifuged at 1900 g for 10 minutes at 4° C. and the plasma recovered and flash frozen for later analysis. The brain was removed from the cranium and hindbrain. The cerebellum was removed and the left and right hemisphere were separated. The left hemisphere was stored at −18° C. for quantitative analysis of test compound levels. The right hemisphere was rinsed with phosphate-buffered saline (PBS) buffer and immediately frozen on dry ice and stored at −80° C. until homogenization for biochemical assays.
Mouse brains were resuspended in 10 volumes of 0.4% DEA (diethylamine)/50 mM NaCl pH 10 (for non-transgenic animals) or 0.1% 3-[3-cholamidopropyl)-dimethyl-ammonio]-1-propanesulfonate (CHAPS) in tris buffered saline (TBS) (for transgenic animals) containing protease inhibitors (Roche-11873580001 or 04693159001) per gram of tissue, e.g. for 0.158 g brain, add 1.58 ml of 0.4% DEA. All samples were sonicated for 30 seconds on ice at 20% power output (pulse mode). Homogenates were centrifuged at 221.300×g for 50 min. The resulting high speed supernatants were then transferred to fresh tubes and were optionally further purified before the next step. A portion of the supernatant was neutralized with 10% 0.5 M Tris-HCl and this was used to quantify Aβtotal. […]
In this model at least 20% Aβ42 lowering compared to untreated animals would be advantageous.

Row | Structure (SMILES) | IC50 (Aβ42; Homo sapiens) [µM] | IC50 (Aβtotal [1]; Homo sapiens) [µM] | Aβtotal (% Ctrl)_Mean (Aβtotal [2]) [% Ctrl] | IC50 (Aβ42) [µM] | IC50 (Aβtotal [1]) [µM]
1 | COc1cc(Nc2cccn3cc(-c4ccc(F)cc4)nc23)ccc1-n1cnc(C)c1 [Compound 1] | 0.155 | 7.41 | 103 |  | 
2 | COc1cc(Nc2cccn3c(Cl)c(-c4ccc(F)cc4)nc23)ccc1-n1cnc(C)c1 [Compound 2] |  |  | 106 |  | 
3 | COc1cc(Nc2cccn3cc(C4CCOCC4)nc23)ccc1-n1cnc(C)c1 [Compound 4] | 0.166 | > 10 | 111 |  | 
4 | COc1cc(Nc2cccn3c(C)c(-c4ccccc4)nc23)ccc1-n1cnc(C)c1 [Compound 5] |  |  | 96 |  | 
5 | COc1cc(Nc2cccn3c(C)c(-c4ccccc4Cl)nc23)ccc1-n1cnc(C)c1 [Compound 15] | 0.038 | 5.5 | 94 |  | 
6 | COc1cc(Nc2cccn3c(C)c(-c4c(F)cccc4F)nc23)ccc1-n1cnc(C)c1 [Compound 27] |  |  | 94 |  | 
7 | COc1cc(Nc2cccn3c(C)c(-c4ccccc4C(F)(F)F)nc23)ccc1-n1cnc(C)c1 [Compound 29] | 0.013 | 7.08 | 86 |  | 
8 | COc1cccc(-c2cn3cccc(Nc4ccc(-n5cnc(C)c5)c(OC)c4)c3n2)c1 [Compound 33] | 0.071 | 5.75 | 98 |  | 
9 | COc1cc(Nc2cccn3cc(C)nc23)ccc1-n1cnc(C)c1 [Compound 50] | 0.309 | > 10 | 96 |  | 
10 | Cc1ncn(-c2ccc(Nc3cccn4cc(-c5ccccc5C)nc34)cc2)n1 [Compound 71] | 0.407 | > 3.02 | 103 |  | 
11 | COc1nc(Nc2cccn3c(C)c(-c4ccccc4C(F)(F)F)nc23)ccc1-n1cnc(C)c1 [Compound 138] |  |  | 102 | 0.005 | 5.89
